Results on one compound are retold here after PMC6757289, “Design and Characterization of SGK3-PROTAC1, an Isoform Specific SGK3 Kinase PROTAC Degrader” (ACS Chemical Biology, 2019).

One experiment concerns the target S6K1 (Homo sapiens, UniProt P23443, T412E). More on the design: method as in PMID 27481935. To be noted: cited from earlier work.
The subject of experiment [1] is phosphorylation of NDRG1 at Thr346. Briefly: NDRG1 phosphorylation in HEK293 cells, immunoblot. As to conditions: HEK293, 8 h, 0.3 μM SGK3-PROTAC1, 1 μM 14H, 1 μM 308-R. In kind it is cell-based. The protocol:
Figure 3 Characterization of cellular activities of SGK3-PROTAC1 and cisSGK3-PROTAC1. (A) HEK293 cells were first treated for 8 h with 0.03–3 μM SGK3-PROTAC1 and cisSGK3-PROTAC1. One hour before lysis, cells were treated with 3 μM AZD5363. Lysates were subjected to immunoblot analysis with the indicated antibodies. […] Lysates were subjected to immunoblot analysis with the indicated antibodies. (C) HEK293 cells were treated for up to 48 h with SGK3-PROTAC1 (0.3 μM), and lysates were analyzed by immunoblot analysis using the indicated antibodies. (D) HEK293 cells were treated for 24 h with SGK3-PROTAC1. Cells were washed three times with DMEM to wash out the compound, and recovery of SGK3 expression protein was analyzed by immunoblot analysis. (E–G) As in A except that CAMA-1 (E), ZR-75-1 (F), and JIMT-1 (G) cells were employed rather than HEK293 cells.
To study the impact of SGK3-PROTAC1 on phosphorylation of a physiological substrate, we monitored phosphorylation of NDRG1 at Thr346.[37] This site is also phosphorylated by Akt; therefore we treated cells with increasing doses of SGK3-PROTAC1 and cisSGK3-PROTAC1 for 8 h, with the addition of an Akt inhibitor (3 μM AZD5363) 1 h before lysis, to remove the impact of Akt phosphorylation of NDRG1. […] Concentrations of cisSGK3-PROTAC1 of above 1 μM were required to lower NDRG1 phosphorylation. […] This is consistent with previous work in HEK293 cells showing that inhibition of both Akt and SGK3 is required to block NDRG1 phosphorylation.[8],[37]
All cell treatments were carried out as described in figure legends, to a final DMSO concentration of 0.1% (v/v). Lysates were quantified. Immunoblotting was performed using standard procedures, described in brief below. Lysate concentration was quantified by Bradford Assay, and 10 μg of lysate was loaded in the LDS sample buffer for SDS-PAGE electrophoresis on Novex 4–12% Bis–Tris gels. Proteins were electrophoretically transferred onto nitrocellulose membranes (Amersham Protran 0.45 μm NC; GE Healthcare) at 80 V for 80 min on ice in transfer buffer. Transferred membranes were blocked with 5% (w/v) nonfat dry milk dissolved in TBS-T [20 mM Tris/HCl, pH 7.5, 150 mM NaCl, and 0.1% (v/v) Tween 20] at RT for 30 min, before incubation with the primary antibody overnight at 4 °C. The signal was produced with near-infrared secondary antibodies and detected using a Licor Biosciences Odyssey System, and the signal was quantified in Image Studio Lite.

In another experiment the target is T1, SGK3 (Homo sapiens, UniProt Q96BR1).
T1 sequence (Q96BR1 1-496): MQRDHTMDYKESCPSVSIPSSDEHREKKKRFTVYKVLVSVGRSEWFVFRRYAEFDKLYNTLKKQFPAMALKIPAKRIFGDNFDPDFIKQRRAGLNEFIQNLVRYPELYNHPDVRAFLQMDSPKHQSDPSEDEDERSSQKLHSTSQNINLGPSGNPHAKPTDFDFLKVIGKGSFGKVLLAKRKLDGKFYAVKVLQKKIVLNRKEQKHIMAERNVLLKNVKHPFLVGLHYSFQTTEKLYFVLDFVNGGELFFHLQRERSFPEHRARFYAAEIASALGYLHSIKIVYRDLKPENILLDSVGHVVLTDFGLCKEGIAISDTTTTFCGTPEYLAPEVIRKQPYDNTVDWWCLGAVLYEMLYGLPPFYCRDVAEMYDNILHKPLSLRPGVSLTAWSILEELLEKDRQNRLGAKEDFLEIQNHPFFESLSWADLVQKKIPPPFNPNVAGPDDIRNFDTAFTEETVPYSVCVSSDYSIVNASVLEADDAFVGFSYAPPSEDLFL
Details: method as in PMID 27481935. To be noted: cited from earlier work.

A further experiment deals with T2, SGK1 (Homo sapiens, UniProt O00141, S422D).
T2 sequence (O00141 60-431 S422D limits assumed): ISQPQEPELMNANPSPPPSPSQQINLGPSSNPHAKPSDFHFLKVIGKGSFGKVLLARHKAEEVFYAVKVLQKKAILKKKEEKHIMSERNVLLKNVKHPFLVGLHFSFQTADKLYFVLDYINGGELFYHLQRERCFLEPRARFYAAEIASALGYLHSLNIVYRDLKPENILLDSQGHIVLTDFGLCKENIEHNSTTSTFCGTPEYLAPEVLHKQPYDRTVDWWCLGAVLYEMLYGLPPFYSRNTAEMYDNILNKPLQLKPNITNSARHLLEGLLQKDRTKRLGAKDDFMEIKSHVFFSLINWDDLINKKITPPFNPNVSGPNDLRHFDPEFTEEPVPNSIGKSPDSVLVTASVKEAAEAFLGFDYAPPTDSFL
Details: method as in PMID 27481935. To be noted: cited from earlier work.

In the next experiment the test system is ZR-75-1 cells. Briefly: Cell growth (confluency, Incucyte S3). In kind it is cell-based. To be noted: ZR-75-1; 1 μM GDC0941 or AZD5363; SGK3-PROTAC1/cisSGK3-PROTAC1 0.3 μM, 14H 3 μM. The protocol:
(§1) Figure 6 SGK3-PROTAC1-mediated degradation of SGK3 further inhibiting the growth of cancer cell lines treated with PI3K-Akt pathway inhibitors. CAMA-1 (A, C) and ZR-75-1 (B, D) were treated with compounds as indicated either as monotherapy or in combination, and confluency was measured on the Incucyte S3 every 4 h for up to 4 weeks.
(§2) For growth assays, ZR-75-1 cells were seeded in 96-well plates at a density of 6000 cells/well and left to adhere overnight. Cells were then treated with compounds as described in the figure legends and imaged every 4 h on the Incucyte S3 (Essen Bioscience) for up to 4 weeks to give a measure of cell confluency. Media were refreshed every 4–5 days.
(§3) Supplementary Figure S3. SGK3-PROTAC compounds have no effect on cell growth. CAMA-1 and ZR-75-1
(§4) confluency was m easured every 4 h on Incucyte S3.
(§5) (1 picture or pasted object on this page, not shown here)

A further experiment deals with CAMA-1 cells. Briefly: Cell growth (confluency, Incucyte S3). In kind it is cell-based. To be noted: CAMA-1; 1 μM GDC0941 or AZD5363; SGK3-PROTAC1/cisSGK3-PROTAC1 0.3 μM, 14H 3 μM. On the procedure:
as §1, §2, §3, §4, §5

S6K1, sequence (P23443 1-421 T412E limits assumed): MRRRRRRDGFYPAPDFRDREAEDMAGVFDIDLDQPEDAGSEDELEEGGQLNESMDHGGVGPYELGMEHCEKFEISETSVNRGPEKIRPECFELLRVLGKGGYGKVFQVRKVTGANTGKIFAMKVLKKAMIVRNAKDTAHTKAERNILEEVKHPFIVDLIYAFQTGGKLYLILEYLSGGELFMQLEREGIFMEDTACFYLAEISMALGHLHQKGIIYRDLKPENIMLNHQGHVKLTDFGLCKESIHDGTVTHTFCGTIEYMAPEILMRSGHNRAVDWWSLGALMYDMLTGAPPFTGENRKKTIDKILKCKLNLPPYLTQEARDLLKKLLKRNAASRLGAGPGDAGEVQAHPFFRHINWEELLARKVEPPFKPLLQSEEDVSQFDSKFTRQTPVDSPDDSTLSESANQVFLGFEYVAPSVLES

The IC50 is the point on the concentration scale where inhibition reaches its midpoint. For `Nc1n[nH]c2nc(-c3ccc(NS(=O)(=O)c4cc(Cl)ccc4Cl)cc3)ncc12` [14H, reference compound], the IC50 on S6K1 was 76 nM; at SGK3, 4 nM; on SGK1 it was 10 nM. For the same compound, the pNDRG1 phosphorylation result in experiment [1] (basal, no inhibition of Akt) is “minimal effect”. For the same compound, the NDRG1 phosphorylation entry in experiment [1] (in the presence of 3 μM AZD5363) is reported as “markedly suppressed”. In addition, the “growth in combination with GDC0941 or AZD5363” value with ZR-75-1 cells and with CAMA-1 cells was “further suppressed cell growth” throughout.
